Results taken from patent publication US6998395B2, “Administration of estradiol metabolites for the treatment or prevention of obesity, metabolic syndrome, diabetes, and vascular and renal disorders” (University of Pittsburg,, priority 2001, dated 2006).

Legend:
male ZSF1 rats [1] = assay: Treatment of male ZSF1 rats for 24 weeks with 2-hydroxyestradiol or 2-methoxyestradiol; type: in vivo, rat; conditions: 10 ug/kg/hr, 28 weeks, versus control animals
male ZSF1 rats [2] = assay: as above; type: in vivo, rat
Protocol: Male ZSF1 rats were treated continuously for 24 weeks with polyethylene glycol 400 (PEG 400) (Sigma, St. Louis, Mo.) or one of three doses of 2-hydroxyestradiol or 2-methoxyestradiol (Steraloids, Inc. Newport, R.I.) dissolved in PEG 400. The three doses were 1 ug/kg/hr, 3 ug/kg/hr or 10 ug/kg/hr. Female ZSF1 rats were treated continuously for 24 weeks with either PEG 400 or 10 ug/kg/hr of 2-hydroxyestradiol. Female ZSF1 rats were ovarectomized at 11 weeks of age. For all animals, both male and female, treatments with estradiol metabolites were begun at approximately 13 weeks of age. One group of male ZSF1 rats received only PEG 400 but were pair fed to receive the same daily food intake as the male ZSF1 rats treated with 10 ug/kg/hr 2-hydroxyestradiol. Treatment was administered via subcutaneous implanted pumps (Alzet Osmotic Pump, Model 2ML4, Alza Corporation, Palo Alto, Calif.). The study was designed to evaluate treatment effects and dose responses on body weight, food intake, water intake, urine output, urinary protein excretion, cholesterol levels, plasma glucose levels and glucose tolerance.
Stock solutions of both 2-hydroxyestradiol and 2-methoxyestradiol were made by dissolving the required amount of estradiol metabolite in PEG 400. This solution was diluted in PEG 400 to deliver the three required doses based on the mean weight of each treatment group and the stated volume delivery rate for each lot of osmotic pumps in the study. This stock solution was prepared fresh prior to each osmotic pump implantation in each group. The control solution of PEG 400 was created in the same manner.
All treatments were administered via a subcutaneously implanted osmotic pump (Alzet Osmotic Pump, Model 2ML4, Alza Corporation, Palo Alto, Calif.). Each lot of osmotic pumps were delivered with the stated rate of delivery and formulation concentrations were adjusted to ensure delivery of 1,3, or 10 ug/kg/hr based on the stated rate of delivery of each lot. Doses were adjusted for the mean weight of the animals in the treatment group obtained 24 hours prior to implantation of the osmotic minipump.
Animals were anesthetized prior to implantation of an osmotic minipump with halothane and oxygen (2.5 liter/min) delivered by a Fluotec 3 anesthetic device (Ohmeda, Steeton, UK). After lightly anesthetizing each animal, implantation was accomplished by shaving the back and creating a half-inch incision in which to insert the osmotic minipump. The incision was then closed with wound clips that were removed in seven days. Osmotic minipumps were replaced at 33-day intervals and each time a particular animal received an osmotic minipump, the insertion point was changed.
Metabolic cages (Nalgene, Rochester, N.Y.) were used in this study. Animals were placed in metabolic cages for 48 hours. The first 24-hour period was considered an acclimation period, while food and fluid intake and urine volume were measured during the second 24-hour period. Additionally, a tail vein sample was obtained to measure blood glucose, sodium, potassium, albumin and creatinine. The blood was further analyzed to assess creatinine clearance, fractional sodium excretion, fractional potassium excretion and fractional albumin excretion. In addition, the following criteria were also assessed while the animals were in the metabolic cages: body weight, feed intake, water intake, urine output, urinary protein, urinary albumin, urinary glucose, urinary sodium and urinary potassium.
Body weights were assessed 24 hours before pump implantation and those weights were used to calculate the dosage of drug or vehicle to be given to each animal based on the mean body weight of each group. Animals were weighed approximately once every two months prior to being placed in a metabolic cage.
Food intake was measured by filling the food containers with standard powder laboratory food up to a total weight of 250 grams. […]

rats = conditions: Oparil et al., Circulation 95:1301 (1997); cited from earlier work
[3] = Kernan et al., 2000; cited from earlier work
[4] = male, 10 ug/kg/hr, 24 weeks, versus control animals
[5] = male, 1, 3 or 10 ug/kg/hr s.c. osmotic pump, 24 weeks, versus control

COc1cc2c(cc1O)CC[C@@H]1[C@@H]2CC[C@]2(C)[C@@H](O)CC[C@@H]12 [2-methoxyestradiol, estra-1,3,5 (10)-triene-2-methoxy-3,17-diol (17β)]
Glycated hemoglobin (HbA1c) (FIG. 14) (male ZSF1 rats [1]): lower
Leptin levels (FIG. 11) (male ZSF1 rats [2]; male, 10 ug/kg/hr, 20 weeks, versus control animals): clearly reduced
24-hour urine output (FIG. 13) (male ZSF1 rats [2]; [4]): lower
24-hour water intake (FIG. 12) (male ZSF1 rats [2]; [4]): lower
Blood urea nitrogen (FIG. 10) (male ZSF1 rats [2]; male, 10 ug/kg/hr, 24 weeks, versus control groups): lower
Plasma level of glucose after administration of 2 g/4 ml/kg glucose (oral glucose tolerance test, FIGS. 8 and 9) (male ZSF1 rats [2]; male, 10 ug/kg/hr, treated for 14 to 15 weeks, versus control groups): lower
Body weight gain (FIGS. 4 and 5) (male ZSF1 rats [2]; [5]): less body weight gain
Food intake (male ZSF1 rats [2]; [5]): lower food intake
Urinary protein excretion (FIG. 7) (male ZSF1 rats [2]; male, 1, 3 or 10 ug/kg/hr, after 24 weeks of treatment, versus control animals): lower

C[C@]12CC[C@@H]3c4ccc(O)cc4CC[C@H]3[C@@H]1CC[C@@H]2O [17β-estradiol]
Body weight of rats (rats): reduction
Vascular protection (rats): vascular protection

CC(N)C(O)c1ccccc1 (stereo not drawn) [phenylpropanolamine]
Adverse effect (stroke) [3]: causes stroke
